Assay results: PubChem BioAssay (NCI)
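1) Cells in 96-well plates. 2) Compound, 48 h, 5 concentrations. 3) Linear interpolation between surrounding doses. 4) Unreached endpoint = highest concentration. The concentration for 50% growth inhibition is given as GI50. Definition used: TGI = concentration required for complete inhibition of growth.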

How the values were obtained:
Assay in all cases: NCI-60 cell line screen, 48 h
HCT-15 colon = system: HCT-15 colon
HOP-92 NSCLC = system: HOP-92 NSCLC
OVCAR-8 ovarian = system: OVCAR-8 ovarian
RPMI-8226 leukemia = system: RPMI-8226 leukemia
RXF 393 renal = system: RXF 393 renal
SK-MEL-2 melanoma = system: SK-MEL-2 melanoma
SN12C renal = system: SN12C renal
SW-620 colon = system: SW-620 colon
TK-10 renal = system: TK-10 renal
UACC-257 melanoma = system: UACC-257 melanoma

Compound	GI50 (HCT-15 colon) [µM]	TGI (HCT-15 colon) [µM]	GI50 (HOP-92 NSCLC) [nM]	TGI (HOP-92 NSCLC) [µM]	GI50 (OVCAR-8 ovarian) [µM]	TGI (OVCAR-8 ovarian) [µM]	GI50 (RPMI-8226 leukemia) [nM]	TGI (RPMI-8226 leukemia) [µM]	GI50 (RXF 393 renal) [µM]	TGI (RXF 393 renal) [µM]	GI50 (SK-MEL-2 melanoma) [µM]	TGI (SK-MEL-2 melanoma) [µM]	GI50 (SN12C renal) [µM]	TGI (SN12C renal) [µM]	GI50 (SW-620 colon) [µM]	TGI (SW-620 colon) [µM]	GI50 (TK-10 renal) [µM]	TGI (TK-10 renal) [µM]	GI50 (UACC-257 melanoma) [µM]	TGI (UACC-257 melanoma) [µM]
O=C(Cc1ccc(Nc2ccnc(C(F)(F)F)c2)cc1)N/N=C/c1ccccc1O	0.634	> 69.5	1970	21	3.15	> 69.4	824	16.2	3.95	38.7	3.12	24.5	2.9	> 58.6	3.02	17	4.43	> 45.3	3.18	> 28.7
Cc1cc2c(cc1C)[n+](=O)c(C(=O)CC(=O)C(=O)Nc1ccccc1C(C)C)c(C)n2[O-]	–	> 100	–	> 100	–	> 100	–	> 100	–	> 100	–	> 100	–	> 100	–	> 100	–	> 100	–	5.82
O=C(O)CCC1CCc2cccc(OCC(=O)O)c2C1=O (stereo unspecified)	–	> 100	–	> 100	–	> 100	–	> 100	–	> 100	–	–	–	> 100	–	> 100	–	> 100	–	> 100
O=C1C(=C([O-])c2ccccc2)C(=O)c2ccccc21.O=C1C(=C([O-])c2ccccc2)C(=O)c2ccccc21.[Co+2]	–	–	62400	> 100	> 100	> 100	> 100000	> 100	–	–	–	–	> 100	> 100	> 100	> 100	> 100	> 100	90.8	> 100
NC(=N\N=C/c1ccc(Cl)cc1Cl)/C(N)=N\N=C/c1ccc(Cl)cc1Cl	> 100	> 100	6540	56.1	20.7	> 100	> 100000	> 100	12.8	63.9	> 57.1	> 93.6	30.7	> 100	> 54.3	> 100	1.25	16.7	> 100	> 100
O=C(O)c1cn(C2CC2)c2cc(N3CCN(C(=O)Nc4nc(-c5ccc(Br)cc5)cs4)CC3)c(F)cc2c1=O	1.75	> 100	2000	6.88	3.72	> 100	437	> 100	3.9	> 100	–	–	3.07	> 100	4.13	> 100	–	–	–	–
CN(CSc1ccc(Cl)cc1)c1ccc(CSc2ccc(Cl)cc2)cc1	5.18	22.2	3560	16.9	13.6	39.8	2110	> 100	8.28	23.6	14.2	36.2	1.82	15.9	3.96	15.9	11.5	31.7	10.3	34.8
N#Cc1c2ccccc2c2nnc3ccccc3n12	21.5	> 100	> 100000	> 100	11.1	45.9	> 100000	> 100	–	–	–	–	–	–	23.1	91.8	31.7	> 100	–	–
COc1ncc(-c2ccc3nccc(C#CCN4CCN(S(C)(=O)=O)CC4)c3c2)cc1NS(=O)(=O)c1ccc(F)cc1F	0.0614	1.62	–	–	0.256	11.7	256	1.83	0.0438	0.354	0.116	1.13	0.124	11.7	0.205	2.23	–	–	0.0386	0.517
N#C/C(=C\c1ccc(F)cc1)n1nc2cccc(F)c2n1	2.58	> 100	2100	9.15	5.06	> 100	3090	87.1	2.72	27	5.26	> 100	3.84	> 100	3.45	> 100	7.01	> 100	–	–
O=C(NS(=O)(=O)c1ccc(NC[C@H]2COCCO2)c([N+](=O)[O-])c1)c1ccc(N2CCN(CC3=C(c4ccc(Cl)cc4)CC4(CCC4)CC3)CC2)cc1Oc1cnc2[nH]ccc2c1	1.94	4.62	1430	3.05	2.18	5.06	–	–	1.32	2.76	1.77	3.4	1.91	3.72	2.47	6.6	2.29	7.27	2.07	4.57
NC(=O)CCc1ccccc1Oc1nccc(-c2c(-c3ccc(F)cc3)ncn2C2CCNCC2)n1	> 25	> 25	–	–	> 25	> 25	> 25000	> 25	> 25	> 25	> 25	> 25	> 25	> 25	> 25	> 25	> 25	> 25	–	–
CCN(CC)CC(O)COc1c(Br)c(Br)c(Br)c2c1OC(C)(C)C2 (stereo unspecified)	4.74	14.7	1350	6.05	11.4	36.7	2010	4.45	–	–	3.55	15.4	6.22	19.8	2.26	4.92	4.19	14.9	2.67	4.87
Cc1ccc(NC(=O)/C(=N\NC(N)=S)C(C#N)c2ccccc2C)cc1C (stereo unspecified)	–	> 100	–	> 100	–	> 100	–	> 100	–	–	–	> 100	–	> 100	–	> 100	–	> 100	–	> 100
O=C(N/C=C/C=C/Sc1ccccc1)OCc1ccccc1	–	36.2	–	52.7	–	29.5	–	> 100	–	35.6	–	–	–	31.6	–	32.8	–	64.7	–	39.5
N#CC(/C(=N/NC(N)=S)C(=O)Nc1cccc(Cl)c1)c1ccccc1 (stereo unspecified)	–	> 100	–	> 100	–	> 100	–	> 100	–	–	–	> 100	–	> 100	–	> 100	–	> 100	–	> 100
O=C(c1cccs1)c1nc2cc(Cl)ccc2[n+]([O-])c1C(F)(F)F	> 100	> 100	–	–	> 100	> 100	64000	> 100	44.3	> 100	51.2	> 100	> 100	> 100	> 100	> 100	> 100	> 100	49.9	> 100
C=C(COC(C)=O)CC(/C=C(\C)CC/C=C(\C)CO)OC(C)=O (stereo unspecified)	–	> 100	–	> 100	–	> 100	–	–	–	> 100	–	> 100	–	> 100	–	> 100	–	> 100	–	–
C#CCn1c(=O)c2cccnc2n(CC#C)c1=O	–	> 100	–	> 100	–	–	–	> 100	–	> 100	–	> 100	–	> 100	–	> 100	–	> 100	–	> 100

Compound	GI50 (HCT-15 colon) [µM]	TGI (HCT-15 colon) [µM]	GI50 (HOP-92 NSCLC) [nM]	TGI (HOP-92 NSCLC) [µM]	GI50 (OVCAR-8 ovarian) [µM]	TGI (OVCAR-8 ovarian) [µM]	GI50 (RPMI-8226 leukemia) [nM]	TGI (RPMI-8226 leukemia) [µM]	GI50 (RXF 393 renal) [µM]	TGI (RXF 393 renal) [µM]	GI50 (SK-MEL-2 melanoma) [µM]	TGI (SK-MEL-2 melanoma) [µM]	GI50 (SN12C renal) [µM]	TGI (SN12C renal) [µM]	GI50 (SW-620 colon) [µM]	TGI (SW-620 colon) [µM]	GI50 (TK-10 renal) [µM]	TGI (TK-10 renal) [µM]	GI50 (UACC-257 melanoma) [µM]	TGI (UACC-257 melanoma) [µM]
COc1ccccc1NC(=O)C(=O)Cc1cnc2ccccc2n1	–	> 100	–	> 100	–	> 100	–	> 100	–	> 100	–	> 100	–	> 100	–	> 100	–	–	–	> 100
CN(C)CC1CCCCCCCCCCCCC(CN(C)C)C1=O (stereo unspecified)	–	34.8	–	26.3	–	22.4	–	–	–	24	–	26	–	29.4	–	20.6	–	27.9	–	29.9
C=C1C(=O)c2cc3c(cc2C(c2cc(OC)c(OC)c(OC)c2)[C@@H]1C(=O)O)OCO3 (stereo partly specified)	–	> 100	–	75.4	–	> 100	–	> 100	–	> 100	–	–	–	> 100	–	> 100	–	> 100	–	> 100
Cn1c2cc([N+](=O)[O-])ccc2c(=O)c2c(O)cc3c(c21)C=CC(C)(C)O3	–	> 100	–	–	–	> 100	–	> 100	–	74.5	–	> 100	–	> 100	–	> 100	–	89.1	–	> 100
CCCCN(CCCC)CC(C(=O)Nc1ccc([N+](=O)[O-])cc1[N+](=O)[O-])/C(C)=N\NC(=O)C[N+](C)(C)C (stereo unspecified)	–	> 100	–	> 100	–	> 100	–	73.8	–	> 100	–	> 100	–	> 100	–	–	–	> 100	–	> 100
COC(=O)c1nc(C(=O)OC)c2c([nH]c3ccccc32)c1C(=O)OC	–	> 100	–	> 100	–	> 100	–	–	–	> 100	–	> 100	–	> 100	–	> 100	–	> 100	–	> 100
OCCCc1cnco1	–	> 100	–	> 100	–	> 100	–	> 100	–	> 100	–	–	–	> 100	–	> 100	–	> 100	–	> 100
COc1cc2c(cc1OCCCCn1c(-c3cccs3)nc3ccccc31)N=C[C@@H]1CCCN1C2=O	3.19	10.5	1330	5.46	2.58	> 100	314	1.62	–	–	1.47	4.68	2.5	8.65	1.84	10.3	2.09	6.74	2.54	5.9
N#Cc1c(-c2ccccc2)cc(-c2cccs2)c(C#N)c1N	–	> 100	–	> 100	–	> 100	–	> 100	–	–	–	–	–	> 100	–	> 100	–	> 100	–	> 100
N#Cc1ccc(C(C2C(=O)NC(=O)NC2=O)C2C(=O)NC(=O)NC2=O)cc1	–	> 100	–	> 100	–	> 100	–	> 100	–	–	–	> 100	–	> 100	–	> 100	–	> 100	–	> 100
CCOC(=O)/C(=C/c1ccccc1Br)P(=O)(OCC)OCC	–	5.87	–	3.45	–	8.09	–	3.36	–	2.44	–	3.7	–	5.76	–	4.45	–	7.98	–	–
CC(C)(CN1CCCCC1)C(=O)CC(SCCN)c1ccc(Cl)cc1 (stereo unspecified)	–	4.53	–	–	–	5.45	–	3.86	–	5.94	–	3.32	–	3.42	–	3.94	–	5.19	–	7.41
CC(=O)Oc1c(Br)ccc2cc(C(Br)Br)c(C(=O)c3ccccc3)nc12	–	44.2	–	–	–	53	–	–	–	33.8	–	48.2	–	45.6	–	48.2	–	31.9	–	8.87
CC(=O)SC(SC(C)=O)SC(C)=O	–	> 100	–	–	–	> 100	–	–	–	> 100	–	> 100	–	> 100	–	> 100	–	> 100	–	> 100
O=c1[nH]c(F)nc2c1ncn2C1OC(CO)C(O)C1O (stereo unspecified)	> 100	> 100	> 100000	> 100	> 100	> 100	> 100000	> 100	> 100	> 100	–	–	> 100	> 100	> 100	> 100	–	–	> 100	> 100
C=C1c2[nH]c3ccccc3c2CC(C(=O)O)N1C(O)c1ccc(S(=O)(=O)O)cc1 (stereo unspecified)	–	–	–	> 100	–	> 100	–	> 100	–	> 100	–	> 100	–	> 100	–	> 100	–	> 100	–	> 100
COC1=CC(=O)OC(/C=C(C)/C=C/C2=C(C)CCCC2(C)C)C1 (stereo unspecified)	–	–	–	> 100	–	> 100	–	–	–	> 100	–	> 100	–	> 100	–	> 100	–	> 100	–	> 100
Fc1ccc(C2SCc3nc4ccccc4n32)cc1F (stereo unspecified)	–	> 100	–	–	–	> 100	–	36.7	–	80	–	63.7	–	> 100	–	> 100	–	82.3	–	> 100
